Results published in ChEMBL document CHEMBL1201862, “PubChem BioAssay data set” (2004).
Activity calls are given as the source filed them.

Key:
Bcl-2-like protein 10 = target: T1, Bcl-2-like protein 10 (Homo sapiens, UniProt Q9HD36); experiment: displacers of TR3 peptide from Bcl-B, primary screen, selectivity assay for Bfl-1 inhibitor project, biochemical, fluorescence polarization, FITC-TR3 peptide (AID 748);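 also: fluorescence polarization from a fluorescein-labelled TR3 peptide binding purified Bcl-B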
T1 sequence (Q9HD36 whole entry): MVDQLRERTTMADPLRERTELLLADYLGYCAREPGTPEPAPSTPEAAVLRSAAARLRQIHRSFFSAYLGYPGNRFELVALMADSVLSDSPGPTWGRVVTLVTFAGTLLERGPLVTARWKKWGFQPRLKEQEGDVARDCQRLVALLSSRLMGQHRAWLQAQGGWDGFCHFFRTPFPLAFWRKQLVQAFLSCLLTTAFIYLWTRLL

[1] = target: T2, Apoptotic protease-activating factor 1 (Homo sapiens, UniProt O14727); assay type: functional
T2 sequence (O14727 whole entry): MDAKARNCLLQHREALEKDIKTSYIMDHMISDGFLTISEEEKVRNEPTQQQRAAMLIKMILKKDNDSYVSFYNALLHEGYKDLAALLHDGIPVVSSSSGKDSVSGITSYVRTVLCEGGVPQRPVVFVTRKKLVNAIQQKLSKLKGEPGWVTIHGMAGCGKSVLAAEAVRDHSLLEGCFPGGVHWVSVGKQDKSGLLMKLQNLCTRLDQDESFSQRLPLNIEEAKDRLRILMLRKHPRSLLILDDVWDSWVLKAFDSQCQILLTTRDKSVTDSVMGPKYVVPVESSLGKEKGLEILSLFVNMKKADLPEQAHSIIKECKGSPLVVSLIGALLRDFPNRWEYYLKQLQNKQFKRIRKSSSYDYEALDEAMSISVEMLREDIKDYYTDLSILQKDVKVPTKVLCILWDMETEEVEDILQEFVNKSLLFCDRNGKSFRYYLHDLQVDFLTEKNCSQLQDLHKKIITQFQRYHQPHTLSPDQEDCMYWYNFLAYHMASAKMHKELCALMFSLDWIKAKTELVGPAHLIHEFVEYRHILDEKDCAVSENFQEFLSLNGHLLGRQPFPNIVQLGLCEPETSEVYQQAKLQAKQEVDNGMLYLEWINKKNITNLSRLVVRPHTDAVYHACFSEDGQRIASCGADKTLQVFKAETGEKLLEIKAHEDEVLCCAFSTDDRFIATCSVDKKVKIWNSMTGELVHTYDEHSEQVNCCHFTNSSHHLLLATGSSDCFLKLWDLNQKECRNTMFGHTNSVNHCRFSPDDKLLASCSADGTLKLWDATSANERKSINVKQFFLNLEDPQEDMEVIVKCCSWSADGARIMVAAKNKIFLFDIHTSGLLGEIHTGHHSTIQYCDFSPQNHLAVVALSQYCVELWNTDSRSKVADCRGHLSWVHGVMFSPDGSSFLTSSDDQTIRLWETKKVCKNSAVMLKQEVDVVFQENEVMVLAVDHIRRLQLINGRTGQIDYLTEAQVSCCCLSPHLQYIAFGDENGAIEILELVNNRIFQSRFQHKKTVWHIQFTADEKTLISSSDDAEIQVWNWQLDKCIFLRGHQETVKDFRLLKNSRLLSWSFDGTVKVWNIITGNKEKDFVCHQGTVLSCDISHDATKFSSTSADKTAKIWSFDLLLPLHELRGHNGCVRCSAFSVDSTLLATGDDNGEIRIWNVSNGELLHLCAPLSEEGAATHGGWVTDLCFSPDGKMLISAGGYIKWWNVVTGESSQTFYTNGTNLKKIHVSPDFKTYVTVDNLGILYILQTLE

[2] = target: Intestinal-type alkaline phosphatase (Homo sapiens, UniProt P09923); experiment: Dose Response confirmation of uHTS hits from a small molecule inhibitors of human intestinal alkaline phosphatase via a luminescent assay. [Related pubchem assays (depositor defined):AID2544, AID2574]; assay type: functional
Sequence of Intestinal-type alkaline phosphatase (P09923 whole entry): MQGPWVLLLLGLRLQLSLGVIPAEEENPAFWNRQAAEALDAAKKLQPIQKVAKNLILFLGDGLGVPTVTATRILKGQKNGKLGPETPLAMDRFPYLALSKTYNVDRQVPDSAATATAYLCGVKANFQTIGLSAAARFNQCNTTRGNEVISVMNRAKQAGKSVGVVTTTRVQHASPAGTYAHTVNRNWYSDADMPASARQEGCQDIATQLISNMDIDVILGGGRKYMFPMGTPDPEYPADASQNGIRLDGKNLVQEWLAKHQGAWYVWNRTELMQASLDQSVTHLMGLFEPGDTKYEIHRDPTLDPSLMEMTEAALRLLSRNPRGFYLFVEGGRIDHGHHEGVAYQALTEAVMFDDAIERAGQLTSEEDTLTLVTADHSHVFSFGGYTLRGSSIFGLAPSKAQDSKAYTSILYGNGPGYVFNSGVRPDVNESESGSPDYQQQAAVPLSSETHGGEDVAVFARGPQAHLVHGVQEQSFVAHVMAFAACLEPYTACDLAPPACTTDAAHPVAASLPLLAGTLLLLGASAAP

Cytochrome P450 2C9 = Cytochrome P450 2C9 (Homo sapiens, UniProt P11712)
Sequence of Cytochrome P450 2C9 (P11712 whole entry): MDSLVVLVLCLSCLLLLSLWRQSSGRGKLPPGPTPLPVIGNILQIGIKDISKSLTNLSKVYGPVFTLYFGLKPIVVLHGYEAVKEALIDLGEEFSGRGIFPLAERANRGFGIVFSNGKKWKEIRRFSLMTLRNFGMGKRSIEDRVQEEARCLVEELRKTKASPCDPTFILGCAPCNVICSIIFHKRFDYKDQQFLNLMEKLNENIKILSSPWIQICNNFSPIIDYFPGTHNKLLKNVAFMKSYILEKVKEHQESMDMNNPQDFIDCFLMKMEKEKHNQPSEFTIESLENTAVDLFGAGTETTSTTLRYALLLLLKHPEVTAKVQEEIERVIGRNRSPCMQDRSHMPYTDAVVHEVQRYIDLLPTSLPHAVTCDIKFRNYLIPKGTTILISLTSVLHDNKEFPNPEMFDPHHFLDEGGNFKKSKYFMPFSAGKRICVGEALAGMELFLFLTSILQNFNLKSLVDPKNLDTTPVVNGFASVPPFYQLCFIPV

HEK293 [3] = experiment: NOD1 signaling inhibitors, primary screen, cell-based, luminescence, uHTS (AID 1578); assay type: functional; settings: Homo sapiens
[4] = test system: Streptococcus sp. 'group A'; experiment: growth inhibition of control SK(-) GAS strain, dose response, counter-screen for streptokinase expression inhibitor project, luminescence, kanamycin, BacTiterGlo, confirmation (AID 1900); assay type: functional, organism-based
HEK293 [5] = experiment: cells; assay type: functional, cell-based; settings: Homo sapiens
Streptokinase A = target: T3, Streptokinase A (Streptococcus pyogenes serotype M1, UniProt P10520); experiment: S. pyogenes streptokinase expression inhibitors, potency, dose response, plasminogen activation absorbance, OD405 (AID 1914); assay type: functional, Streptococcus pyogenes M1 GAS;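 also: secreted streptokinase activity via plasminogen activation per viability signal from cell pellet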
T3 sequence (P10520 whole entry): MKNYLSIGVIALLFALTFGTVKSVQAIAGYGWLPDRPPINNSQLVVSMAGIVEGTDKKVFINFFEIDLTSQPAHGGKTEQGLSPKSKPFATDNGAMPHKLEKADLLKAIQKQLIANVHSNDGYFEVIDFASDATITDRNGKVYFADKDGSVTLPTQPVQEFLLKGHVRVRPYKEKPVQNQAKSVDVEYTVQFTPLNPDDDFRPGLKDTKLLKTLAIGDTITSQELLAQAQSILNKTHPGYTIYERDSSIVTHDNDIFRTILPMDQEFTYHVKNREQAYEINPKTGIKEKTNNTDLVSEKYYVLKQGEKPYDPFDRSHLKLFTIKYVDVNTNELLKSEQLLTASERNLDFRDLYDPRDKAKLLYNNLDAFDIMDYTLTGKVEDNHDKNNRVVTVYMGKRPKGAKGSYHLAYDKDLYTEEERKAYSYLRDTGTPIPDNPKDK

HEK293 [6] = experiment: cells; assay type: functional, cell-based; settings: Homo sapiens; remark: listed apart in the source
[7] = target: Nucleotide-binding oligomerization domain-containing protein 2 (Homo sapiens, UniProt Q9HC29); experiment: NOD2 signaling inhibitors, cell-based, luminescence, uHTS, HEK293 (AID 1566); assay type: functional
Sequence of Nucleotide-binding oligomerization domain-containing protein 2 (Q9HC29 whole entry, the tested form may be a part): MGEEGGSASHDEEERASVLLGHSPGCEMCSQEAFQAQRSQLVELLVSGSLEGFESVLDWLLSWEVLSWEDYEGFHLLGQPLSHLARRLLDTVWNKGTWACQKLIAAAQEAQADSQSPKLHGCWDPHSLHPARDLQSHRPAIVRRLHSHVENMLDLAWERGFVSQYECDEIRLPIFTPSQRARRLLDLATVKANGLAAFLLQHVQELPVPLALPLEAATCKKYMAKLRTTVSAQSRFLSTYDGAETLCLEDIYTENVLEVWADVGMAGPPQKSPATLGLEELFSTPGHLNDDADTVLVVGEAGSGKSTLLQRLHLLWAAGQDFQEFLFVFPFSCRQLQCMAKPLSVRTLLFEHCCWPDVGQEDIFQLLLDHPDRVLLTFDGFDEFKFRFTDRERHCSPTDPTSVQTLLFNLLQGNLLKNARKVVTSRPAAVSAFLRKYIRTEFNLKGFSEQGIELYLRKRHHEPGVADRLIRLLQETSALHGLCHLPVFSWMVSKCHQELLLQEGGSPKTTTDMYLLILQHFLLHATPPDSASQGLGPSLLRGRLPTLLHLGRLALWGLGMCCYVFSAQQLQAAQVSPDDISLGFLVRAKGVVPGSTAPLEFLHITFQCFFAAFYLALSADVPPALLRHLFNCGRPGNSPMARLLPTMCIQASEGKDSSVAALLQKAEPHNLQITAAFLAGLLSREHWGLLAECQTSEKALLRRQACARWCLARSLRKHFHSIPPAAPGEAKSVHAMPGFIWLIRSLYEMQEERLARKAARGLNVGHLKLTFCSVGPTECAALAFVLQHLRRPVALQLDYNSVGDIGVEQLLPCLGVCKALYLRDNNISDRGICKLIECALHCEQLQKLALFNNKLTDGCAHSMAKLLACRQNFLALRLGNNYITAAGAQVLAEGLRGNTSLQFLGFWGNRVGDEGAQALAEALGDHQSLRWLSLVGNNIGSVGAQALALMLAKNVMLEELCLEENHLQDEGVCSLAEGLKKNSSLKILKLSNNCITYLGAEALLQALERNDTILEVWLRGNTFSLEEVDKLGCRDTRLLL

HEK293 [8] = experiment: NOD2 signaling inhibitors in MDP-stimulated cells, cell-based, uHTS, luminescence (AID 2001); assay type: functional; settings: Homo sapiens
[9] = inhibitors of intracellular T. cruzi replication, confirmation, NIH3T3 host cells, beta-gal luminescence (AID 2044); assay type: functional, cell-based;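 also: intracellular parasites grown in NIH/3T3 mouse fibroblasts as host cells; luminescent beta-galactosidase reporter signal from transgenic T. cruzi replicating inside host cells; inhibitors lower the luminescence signal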
HEK293 [10] = experiment: cells; assay type: functional, cell-based; settings: Homo sapiens; remark: listed apart in the source
[11] = cytotoxicity toward NIH3T3 fibroblasts, dose response, counter-screen, cell-based, ATP luminescence, mouse fibroblasts (AID 2010); assay type: functional;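 also: cells exposed to compound for about 90 hours before reading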
Streptococcus = experiment: Group A Streptococcus viability loss, dose response, counter-screen for streptokinase expression inhibitor project, luminescence, BacTiterGlo (AID 1915); assay type: functional, organism-based;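 also: potency for reduction of bacterial viability or growth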
Vero = experiment: cells; assay type: functional; settings: Chlorocebus sabaeus
[12] = A549 cell cytotoxicity, dose response, cytotoxicity control, plate reader, cherry-pick, antagonist series (AID 743412); assay type: functional, cell-based
[13] = HepG2 cell cytotoxicity, dose response, cytotoxicity control, plate reader, cherry-pick, antagonist series (AID 743416); assay type: functional, cell-based
[14] = LGR2 antagonists, dose response, cell-based, HEK293, CRE-luciferase reporter, cherry pick, set 2 (AID 743343); assay type: functional;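 also: transfected cells were stimulated with diluted bursicon conditioned medium after compound addition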
[15] = MC4R antagonists, dose response, counter-screen for LGR2 antagonist project, cell-based, plate reader, cherry pick (AID 743444); assay type: functional;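 also: transfected HEK 293 cells stimulated with alpha-MSH peptide; potency of inhibitors of the alpha-MSH evoked signal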
[16] = HEK293 cell cytotoxicity, dose response, cytotoxicity control, plate reader, cherry-picked samples (AID 743446); assay type: functional, cell-based
CHO-K1 = experiment: (§1) Counterscreen for antagonists of the orexin 1 receptor (OX1R; HCRTR1): Homogeneous time resolved fluorescence (HTRF)-based cell-based dose response assay to identify antagonists of the parental CHO-K1 cell line. [Related pubchem assays (depositor defined):AID434989, AID435008, AID463079, AID485270, AID492963, AID492964, AID492965, AID493232, AID504699, AID504701]; assay type: functional; settings: Cricetulus griseus
[17] = as §1, with “Fluorescence-based” for “Homogeneous time resolved fluorescence (HTRF)-based”, “cell-based high throughput” for “cell-based”, “CHO” for “CHO-K1”; assay type: functional
[18] = target: T4, Orexin/Hypocretin receptor type 1 (Homo sapiens, UniProt O43613); experiment: Homogeneous Time Resolved Fluorescence (HTRF)-based cell-based high throughput dose response assay for antagonists of the orexin 1 receptor (OX1R; HCRTR1). [Related pubchem assays (depositor defined):AID434989, AID435008, AID463079, AID485270, AID492963, AID492964, AID492965, AID493232, AID504717, AID504718]; assay type: functional
T4 sequence (O43613 whole entry): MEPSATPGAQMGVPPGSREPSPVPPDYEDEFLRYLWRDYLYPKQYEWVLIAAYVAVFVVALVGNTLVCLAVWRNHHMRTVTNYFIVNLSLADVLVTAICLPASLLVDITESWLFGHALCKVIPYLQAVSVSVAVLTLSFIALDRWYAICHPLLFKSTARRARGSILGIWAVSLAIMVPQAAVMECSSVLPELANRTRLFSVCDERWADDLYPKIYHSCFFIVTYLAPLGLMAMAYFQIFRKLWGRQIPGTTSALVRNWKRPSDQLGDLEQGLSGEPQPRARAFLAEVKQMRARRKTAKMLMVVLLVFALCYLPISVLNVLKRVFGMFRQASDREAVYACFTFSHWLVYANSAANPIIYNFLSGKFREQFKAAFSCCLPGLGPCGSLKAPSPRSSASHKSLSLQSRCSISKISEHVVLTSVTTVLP

[19] = target: T5, Heat shock factor protein 1 (Mus musculus, UniProt P38532); experiment: HSF1 potentiators in luciferase reporter cells, confirmation, cell-based, NIH3T3, luminescence, dose retest (AID 435004); assay type: functional;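 also: stress induced by proteasome inhibitor MG132 added 30 min after compound; luciferase reporter driven by HSF1 response element in NIH3T3 cells; actives raise luminescence as potentiators of the MG132 stress response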
T5 sequence (P38532 whole entry): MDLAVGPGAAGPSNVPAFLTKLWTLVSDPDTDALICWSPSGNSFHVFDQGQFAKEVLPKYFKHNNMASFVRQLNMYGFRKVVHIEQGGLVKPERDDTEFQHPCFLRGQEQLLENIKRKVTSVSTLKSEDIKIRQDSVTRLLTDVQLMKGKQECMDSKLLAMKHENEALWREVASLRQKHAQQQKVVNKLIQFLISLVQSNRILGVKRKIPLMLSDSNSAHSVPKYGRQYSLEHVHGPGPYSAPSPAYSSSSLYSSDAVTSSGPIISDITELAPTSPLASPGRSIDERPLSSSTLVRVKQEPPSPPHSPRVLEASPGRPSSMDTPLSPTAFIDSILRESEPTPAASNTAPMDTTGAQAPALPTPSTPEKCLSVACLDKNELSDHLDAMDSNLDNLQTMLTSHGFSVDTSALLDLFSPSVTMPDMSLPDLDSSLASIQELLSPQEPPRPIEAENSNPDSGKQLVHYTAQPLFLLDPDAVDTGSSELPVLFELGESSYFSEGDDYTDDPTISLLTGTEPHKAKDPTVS

[20] = target: T4, Orexin/Hypocretin receptor type 1; experiment: Fluorescence-based cell-based high throughput dose response assay for antagonists of the orexin 1 receptor (OX1R; HCRTR1). [Related pubchem assays (depositor defined):AID434989, AID435008, AID463079, AID485270, AID492963, AID492964, AID492965, AID493232, AID504717, AID504718]; assay type: functional

O=C(COC(=O)c1ccc(S(=O)(=O)NCc2ccco2)cc1)NCC1CCCCC1
IC50 (Bcl-2-like protein 10): > 100 µM (inactive)

c1cc2c3c(cccc3c1)NC1(CCCCCC1)N2
IC50 (Bcl-2-like protein 10): 78.4 µM (inactive)
IC50 [1]: 6.58 µM (active)

CCOC(=O)c1c(NC(=O)Cn2cc([N+](=O)[O-])cn2)sc2c1CCC2
IC50 [2]: > 100 µM (inactive)
AC50 (Cytochrome P450 2C9): 3.55 µM (inconclusive)

CC(=O)c1c(C)[nH]c(C(=O)Nc2nc(-c3ccc(-c4ccccc4)cc3)cs2)c1C
EC50 (HEK293 [3]): 3.76 µM (active)
EC50 [4]: 4.48 µM (active)
IC50 (HEK293 [5]): 4.41 µM (active)
EC50 (Streptokinase A): > 150 µM (not active)
IC50 (HEK293 [6]): 11.2 µM (active)
EC50 [7]: 14.1 µM (active)
IC50 (HEK293 [8]): 4.86 µM (inactive)
EC50 [9]: 0.876 µM (active)
IC50 (HEK293 [10]): 18.2 µM (active)
EC50 [11]: > 60 µM (not active)
EC50 (Streptococcus): 16.7 µM (active)
CC50 (Vero): 21.1 µM (active)
AC50 [12]: 17.6 µM (active)
AC50 [13]: 23.5 µM (active)
AC50 [14]: 40.2 µM (active)
AC50 [15]: 20 µM (active)
AC50 [16]: 17.9 µM (active)

COc1ccc(C)cc1NC(=O)CSc1ccc(-c2ccco2)nn1
EC50 (HEK293 [3]): > 20 µM (inactive)
IC50 (HEK293 [5]): > 20 µM (inactive)
IC50 (HEK293 [6]): > 20 µM (inactive)
EC50 [7]: > 20 µM (inactive)
IC50 (HEK293 [8]): 9.49 µM (inactive)
IC50 (HEK293 [10]): > 20 µM (inactive)

OC(CN1c2ccccc2Sc2ccccc21)Cn1nnc2ccccc21 (centres undefined)
IC50 (CHO-K1): > 66.2 µM (inactive)
IC50 [17]: 21.3 µM (inactive)
IC50 [18]: 13.3 µM (inactive)
EC50 [19]: > 260 µM (inactive)
IC50 [20]: 16.4 µM (inactive)

CCn1cnc2sc(C(=O)O)c(C)c2c1=O
IC50 [2]: > 100 µM (inactive)
